Assay [1] deals with MRSA 97-115. The assay is described as follows: Antibacterial activity test (MIC). Type of assay: cell-based, methicillin-resistant Staphylococcus aureus. Conditions: Mueller-Hinton Broth, 37° C., 20 to 24 hours. Summed up: (§1)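 Broth dilution MIC per the Japanese Society of Chemotherapy standard method in Mueller-Hinton Broth. Strains were grown statically at 37° C for 16 to 20 hours and diluted in sterile saline to 10^5/ml. Compounds were dissolved in methanol and serially diluted twofold in medium, giving 100 μg/ml and 2^n-fold (n=−10 to 1).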

Assay [2] relates to E. coli NIHJ JC-2. Nature of the assay: Antibacterial activity test (MIC). Type of assay: cell-based. Conditions: Mueller-Hinton Broth, 37° C., 20 to 24 hours. The gist of the method: as §1
The subject of assay [3] is P. aeruginosa PAO-1. The assay is described as follows: Antibacterial activity test (MIC). The class given is cell-based. Conditions: Mueller-Hinton Broth, 37° C., 20 to 24 hours. The gist of the method: as §1
The subject of assay [4] is S. aureus 209PJC. Nature of the assay: Antibacterial activity test (MIC). The class given is cell-based. Conditions: Mueller-Hinton Broth, 37° C., 20 to 24 hours. The gist of the method: as §1
Assay [5] deals with E. coli NIHJ JC-2. The assay is described as follows: Bactericidal activity test (MBC, phenol coefficient measuring method). Type of assay: cell-based. The method, then: (§2) As a test bacterium, the same bacteria species as those of the antibacterial activity test were used; as a medium to be used, a SCD medium (manufactured by Eiken Chemical Co., Ltd.) was used for pre-culture medium; and a heart infusion bouillon medium (manufactured by Eiken Chemical Co., Ltd.) was used as a medium for growing a live bacterium in a test solution after bactericidal treatment. One platinum loop of a test bacterium was inoculated into 20 ml of a medium, and static culture was carried out at 37° C. for 18 to 20 hours, and the cells were adjusted with a sterilized physiological saline to 1×10^7/ml, which was used as a test bacterium solution.
(§3) Then, a solution of each compound in methanol was subjected to ½ stepwise dilution with sterilized water, each 5 ml was dispensed into a test tube, 0.5 ml of the previously prepared test bacterium solution was added thereto, and the mixture was blended well. After 1 minute, 3 minutes and 5 minutes has passed, 5 μl of the test solution was collected and inoculated into 2 ml of a heart infusion bouillon medium, this was cultured at 37° C. for 40 to 48 hours, and the presence or absence of growth of a bacterium was determined. A test was performed three times, a minimum concentration at which growth of a bacterium was not recognized two or more times was adopted as a minimal bactericidal concentration (MBC value).
(§4) Numerical values in Tables represent MBC expressed in μg/ml unit.

In assay [6] the test system is P. aeruginosa PAO-1. The assay is described as above. Type of assay: cell-based. Here is the method:
as §2, §3, §4

Assay [7] concerns S. aureus 209PJC. Described as above. Type of assay: cell-based. The method, then: as §2, §3, §4
Assay [8] deals with MRSA 97-115. The assay is described as above. The class given is cell-based, methicillin-resistant Staphylococcus aureus. Here is the method: as §2, §3, §4

With `CC(=O)O.CCCCCCCNC1=NC(C)(C)N=C(NCCCCCCC)N1` [compound 69], the “minimal inhibitory concentration (MIC)” value turned out to be 0.8 µg/mL in assay [1], 12.5 µg/mL in assay [2], 50 µg/mL in assay [3] and 0.8 µg/mL in assay [4]. In addition, the “minimal bactericidal concentration (MBC)” value worked out at 6.3 µg/mL in assay [5] (1 min); 3.1 µg/mL in assay [5] (3 min); 3.1 µg/mL in assay [5] (5 min); 3.1 µg/mL in assay [6] (1 min); 1.6 µg/mL in assay [6] (3 min); 1.6 µg/mL in assay [6] (5 min). The “minimal bactericidal concentration (MBC)” value in assay [7] (1 min) turned out to be 6.3 µg/mL; in assay [7] (3 min), 6.3 µg/mL; in assay [7] (5 min) it was 3.1 µg/mL; in assay [8] (1 min), 25 µg/mL; in assay [8] (3 min), 25 µg/mL; in assay [8] (5 min), 12.5 µg/mL.

As for `CCCCCCCCCCCCCCNC1=NC(C)(C)N=C(N)N1.Cl` [compound 72], the “minimal inhibitory concentration (MIC)” value in assay [1] worked out at 1.6 µg/mL; in assay [2] it was 25 µg/mL; in assay [3], 25 µg/mL; in assay [4] it was 0.8 µg/mL. In addition, the “minimal bactericidal concentration (MBC)” value was 6.3 µg/mL in assay [5] (1 min); 3.1 µg/mL in assay [5] (3 min); 3.1 µg/mL in assay [5] (5 min); 3.1 µg/mL in assay [6] (1 min); 1.6 µg/mL in assay [6] (3 min); 1.6 µg/mL in assay [6] (5 min). The “minimal bactericidal concentration (MBC)” value in assay [7] (1 min) amounted to 3.1 µg/mL; in assay [7] (3 min), 1.6 µg/mL; in assay [7] (5 min) it was 1.6 µg/mL; in assay [8] (1 min), 25 µg/mL; in assay [8] (3 min), 12.5 µg/mL; in assay [8] (5 min), 12.5 µg/mL.

Consider `CCCCCCCCCCNC1=NC(C)(C)N=C(NCc2ccc(OC)cc2)N1.CS(=O)(=O)O` [38(2)], for which the “minimal inhibitory concentration (MIC)” value was 0.8 µg/mL in assay [1], 25 µg/mL in assay [2], 100 µg/mL in assay [3] and 0.4 µg/mL in assay [4]. Besides, the “minimal bactericidal concentration (MBC)” value was 6.3 µg/mL in assay [5] (1 min); 3.1 µg/mL in assay [5] (3 min); 3.1 µg/mL in assay [5] (5 min); 6.3 µg/mL in assay [6] (1 min); 3.1 µg/mL in assay [6] (3 min); 1.6 µg/mL in assay [6] (5 min). Moreover, the “minimal bactericidal concentration (MBC)” value in assay [7] (1 min) was 12.5 µg/mL; in assay [7] (3 min), 6.3 µg/mL; in assay [7] (5 min) it was 3.1 µg/mL; in assay [8] (1 min), 25 µg/mL; in assay [8] (3 min), 12.5 µg/mL; in assay [8] (5 min), 12.5 µg/mL.

As to `CCCCCCCCCCC1N=C(N)N=C(N)N1c1ccc(F)c(F)c1F.Cl` (stereo not drawn) [compound 31], the “minimal inhibitory concentration (MIC)” value in assay [1] was determined as 3.1 µg/mL; in assay [2], 12.5 µg/mL; in assay [3], 25 µg/mL; in assay [4] it was 1.6 µg/mL. Also, the “minimal bactericidal concentration (MBC)” value in assay [5] (1 min) came to 12.5 µg/mL; in assay [5] (3 min), 12.5 µg/mL; in assay [5] (5 min) it was 6.3 µg/mL; in assay [6] (1 min), 12.5 µg/mL; in assay [6] (3 min), 12.5 µg/mL; in assay [6] (5 min), 6.3 µg/mL. The “minimal bactericidal concentration (MBC)” value is 25 µg/mL in assay [7] (1 min); 12.5 µg/mL in assay [7] (3 min); 12.5 µg/mL in assay [7] (5 min); 25 µg/mL in assay [8] (1 min); 12.5 µg/mL in assay [8] (3 min); 6.3 µg/mL in assay [8] (5 min).

With `CCCCCCCCCCCC1N=C(N)NC(NCc2ccccc2)=N1.Cl` (racemic) [43(1)], the “minimal inhibitory concentration (MIC)” value was 0.8 µg/mL in assay [1], 6.3 µg/mL in assay [2], 25 µg/mL in assay [3] and 0.4 µg/mL in assay [4]. The “minimal bactericidal concentration (MBC)” value is 12.5 µg/mL in assay [5] (1 min); 6.3 µg/mL in assay [5] (3 min); 3.1 µg/mL in assay [5] (5 min); 3.1 µg/mL in assay [6] (1 min); 3.1 µg/mL in assay [6] (3 min); 3.1 µg/mL in assay [6] (5 min). For the same compound, the “minimal bactericidal concentration (MBC)” value in assay [7] (1 min) turned out to be 25 µg/mL; in assay [7] (3 min), 6.3 µg/mL; in assay [7] (5 min), 6.3 µg/mL; in assay [8] (1 min), 50 µg/mL; in assay [8] (3 min) it was 25 µg/mL; in assay [8] (5 min), 12.5 µg/mL.

As for `CCCCCCCCCCNC1=NC(C)(C)N=C(NCc2ccccc2)N1.CS(=O)(=O)O` [compound 2], the “minimal inhibitory concentration (MIC)” value in assay [1] worked out at 0.8 µg/mL; in assay [4], 0.4 µg/mL. Further, the “minimal bactericidal concentration (MBC)” value in assay [5] (1 min) amounted to 6.3 µg/mL; in assay [5] (3 min) it was 3.1 µg/mL; in assay [5] (5 min) it was 3.1 µg/mL; in assay [6] (1 min), 3.1 µg/mL; in assay [6] (3 min) it was 1.6 µg/mL; in assay [6] (5 min) it was 1.6 µg/mL. For the same compound, the “minimal bactericidal concentration (MBC)” value in assay [7] (1 min) came out at 12.5 µg/mL; in assay [7] (3 min) it was 6.3 µg/mL; in assay [7] (5 min) it was 3.1 µg/mL; in assay [8] (1 min) it was 25 µg/mL; in assay [8] (3 min) it was 12.5 µg/mL; in assay [8] (5 min), 6.3 µg/mL.

`CCCCCCCCCCNC1=NC(C)(C)N=C(NCc2ccc(C(=O)O)cc2)N1.Cl` [compound 60]: the “minimal inhibitory concentration (MIC)” value is 6.3 µg/mL in assay [1], above 100 µg/mL in assay [2], above 100 µg/mL in assay [3] and 3.1 µg/mL in assay [4].

`CC(=O)O.CCCCCCCCNC1=NC(C)(C)N=C(NCCc2ccccc2)N1` [compound 57]: the “minimal inhibitory concentration (MIC)” value in assay [1] was 1.6 µg/mL; in assay [2], 25 µg/mL; in assay [3], 25 µg/mL; in assay [4] it was 0.8 µg/mL.

For the origin of these results see patent US7622469B2, “2,4-diamino-1,3,5-triazine derivatives” (Hamari Chemicals, Ltd., priority 2002, dated 2009).
